Source: US12084523B2, “Ubiquitin high affinity cyclic peptides and methods of use thereof” (TECHNION RESEARCH & DEVELOPMENT FOUNDATION LIMITED, priority 2018, dated 2024)

Legend:
^K48Ub4 = target: T1, ^K48Ub4 (Homo sapiens, UniProt P0CG47); assay: SPR binding of cyclic peptides to K48-linked tetra-ubiquitin; details: SPR, target ^K48Ub4
T1 construct: solid phase peptide synthesis of Ub monomers (modified as required); made in house
Method: Surface Plasmon Resonance (SPR)
The interactions between cyclic peptides: U2i, U2ii, U4i, U4ix and Ub1, ^K48Ub2 and ^K48Ub4, were determined using BIACORE T100 instrument (GE healthcare) equipped with a biotin CAPture kit Series S chip. The buffer in all experiments contained 50 mM HEPES, pH 7.3, 150 mM NaCl, 0.05% Tween20, 2 mM DTT with 0.2% DMSO. Biotinylated Ub1, ^K48Ub2 and ^K48Ub4 were loaded to approximately equal molar amounts on the SPR chip, and various concentrations of cyclic peptides were flowed over at […] for 120 sec, before initiation of dissociation by flowing buffer over at […] for further 700 sec. Traces were fit to the simplest, two-state model for binding. Association was fit to a single exponential assuming pseudo-first order conditions, whereas the dissociation trace was fit to single exponential plus a drift term. Finally, due to the poor quality of the traces for U4ix binding ^K48Ub2, the amplitude of the association kinetic trace at different concentrations of peptide was fit to estimate the lower bound for KD.
Each peptide was flowed over Ub1, ^K48Ub2 and […] immobilized on SPR chips. There was no detectable binding to Ub1 for any of the peptides, as expected, as Ub1 binding was explicitly selected against during the RaPID protocol. […] However, Ub2i and Ub2ii also strongly bound ^K48Ub4, with a low apparent KD and an increased SPR response (FIG. 1E). This was consistent with a higher stoichiometry of binding to the tetramer, which could be explained by additional binding sites in ^K48Ub4. Indeed, the ^K48Ub2 structure can be superimposed twice on the ^K48Ub4 crystal structure (FIG. 10). […] However, similar to Ub2i and Ub2ii, Ub4i also bound ^K48Ub2. This was perhaps unsurprising, given the high sequence identity between Ub4i and Ub2i.

[1] = system: cellular protein breakdown in HeLa cells; assay: Radioactive pulse and chase, degradation-inhibition assay; assay type: cell-based, human; details: 4 h chase, vs non-treated or DMSO
Method: Radioactive Pulse and Chase
For degradation-inhibition assays, cells were labeled with ^35S-methionine and cysteine (20 μCi) for 16 hours, followed by a chase in cold medium for 4 hours, in the presence of DMSO, proteasome inhibitor MG132, or Ub4ix. Media were then collected, and amino acids were extracted using TCA precipitation. Radioactive readings were measured using a scintillation counter.
In order to directly measure the effect of Ub4ix on proteolysis, the inventors employed radiolabeling of cellular proteins, followed by a chase experiment in the presence of either Ub4ix or the proteasome inhibitor MG132. […] The inventors validated this inhibitory effect on protein breakdown with known proteasomal substrates, the proteins p53, and p27, bona fide substrates of the UPS.

USP2 [2] = assay: In vitro deubiquitination assay, USP2 with K48-linked di-Ub; assay type: biochemical; details: di-Ub as the substrate
Method: (§1) In Vitro Deubiquitination Assay
(§2) In vitro deubiquitination reactions were performed in a Tris buffer (50 mM TRIS, 1 mM TCEP, pH 7.7), containing 2 μM ^K48Ub2/4, then the specific DUB (50 mM Tris, 0.5 mM EDTA, 1 mM TCEP and 0.5 mg/ml ovalbumin, pH 7.5) was added. The reaction mixtures were incubated at 37° C. and at the indicated time points the reactions were stopped by taking aliquots and mixed them with 3× sample buffer and boiling. The same amounts were loaded on 14% SDS-PAGE, electro-blotted to nitrocellulose membrane and probed with an anti-Ub antibody. Bands were quantified with Image Quant LAS 4000 (GE Healthcare).
(§3) The inventors further chose to examine the effect of these cyclic peptides on two DUBs: OTUB1, a K48-linkage chain specific DUB, and USP2, which cleaves most Ub chains without specificity, using K48-linked di- and tetra-Ub chains as substrates.

HeLa cells [3] = assay type: cell-based, human; details: MTT
Method: Cell Viability Assays and Kinetic Experiments In order to assess the effect of the cyclic peptides on Hela cells, toxicity was determined using the MTT assay. Equal amounts of cells (8,000 cells/well) were plated in 96-well plates in triplicate. After 24 hours, attached cells were exposed to increasing concentrations of the cyclic peptides for another 24 hours. […] Optical density was recorded at 590 nm with a reference measurement at 630 nm.

HeLa cells [4] = assay: Annexin V-FITC FACS apoptosis analysis; assay type: cell-based, human; details: 10 μM, 24 h and 48 h
Method: Fluorescence-Activated Cell Sorting (FACS) Analysis
Induction of apoptosis in Hela cells by treatment with cyclic peptides were determined after 24 and 48 hours incubation in a dose dependent manner, using annexin V-FITC apoptosis detection kit (BD Biosciences) according to the manufacturer s protocol. Two (2)×10^5 cells/well were seeded in 6-well plates and treated with an inhibitor for 24/48 hours in a dose dependent manner. The increase in fluorescence, which indicates the apoptosis level in the treated cells, were monitored using flow cytometry and compared to untreated cells containing DMSO as a negative control and MG132 as a positive control.
Given that Ub4ix has a pronounced inhibitory effect on the UPS system, the inventors further wanted to examine whether it inhibit cell growth and induce apoptosis in cancer cells. […] The effects of the cyclic peptides on apoptosis were evaluated using FACS analysis.

26S proteasome = assay: In vitro proteasome degradation assay of HA-α-globin-K48-linked tetra-Ub; assay type: biochemical; details: 5.3 μM peptide
[5] = system: Ub-conjugates in HeLa cells; assay: Western blot of cellular Ub-conjugates; assay type: cell-based, human
Method: (§4) FIGS. 5A-5F are images and graphs showing the uptake of Ub4ix by living cells and its cellular effect. (5A) is an image of the structure of fluorescein-5-maleimide-Ub4ix. (5B) is micrographs of HeLa cells incubated in the presence of DMSO (Negative control) or fluorescein-5-maleimide-Ub4ix cyclic peptide (20 μM). Internalization of the peptide into the cells was monitored at the indicated time points. Ub4ix induced the accumulation of Ub-conjugates, as a result of proteolysis inhibition. (5C) is an image of a western blot analysis of ubiquitinated proteins from HeLa cells which were incubated in the presence of Ub4ix, fluorescein-5-maleimide-Ub4ix, or MG132 for the indicated time-periods. Cells were lysed, resolved using SDS-PAGE, proteins were transferred to a nitrocellulose membrane, and the membrane was blotted using an antibody against Ub-conjugates (Ub conj), and Actin. (5D) is a graph of radio-labeled proteins from HeLa cells which were labeled with radioactive S-Met and S-Cys and were then chased for 4 hours in “cold” media. Cells were either non-treated (Control), or incubated in the presence of DMSO, Ub4ix, or MG132, at the indicated concentrations. Radioactivity levels, resulting from protein breakdown during the chase phase, were measured using a scintillation counter. […]

[6] = system: protein synthesis in HeLa cells; assay: Radioactive pulse assay of protein synthesis; assay type: cell-based, human; details: 35S-Met/Cys incorporation
Method: HeLa cells were incubated with either DMSO, ribosomal inhibitor cycloheximide (CHX), or Ub4ix. After 4 hours, media were replaced with media containing radioactive Methionine and Cysteine, and cells where pulsed for 4 hours. Cells were thoroughly washed, proteins were extracted from the cells, and the radioactive readings of each sample were measured using a scintillation counter, indicating the extent of incorporation of radiolabeled Methionine and Cysteine into newly synthesized proteins.
For the assay of inhibitions of protein synthesis, cells were incubated with DMSO, ribosomal inhibitor cycloheximide (CHX), or Ub4ix. After 4 hours, media were replaced with medium containing ^35S-methionine and cysteine (20 μCi) and cells where pulsed for 4 hours. Plates were extensively washed with ice-cold PBS and proteins were extracted from cells using trichloroacetic acid (TCA) precipitation. The radioactive readings were measured using a scintillation counter.

USP2 [7] = assay: In vitro deubiquitination assay, USP2 with K48-linked tetra-Ub; assay type: biochemical; details: tetra-Ub chain, after removal of the distal Ub (tri-Ub)
Method: as §1, §2, §3

[8] = system: p53 and p27 in HeLa cells; assay: Western blot of proteasomal substrates p53 and p27; assay type: cell-based, human
Method: as §4

## CC[C@H](C)[C@@H]1NC(=O)[C@H](Cc2c[nH]c3ccccc23)NC(=O)[C@H](Cc2c[nH]c3ccccc23)NC(=O)[C@H](CC(=O)O)NC(=O)CNC(=O)[C@H](CO)NC(=O)[C@H](CC(=O)O)NC(=O)[C@H](CC(=O)O)NC(=O)[C@H](CC(C)C)NC(=O)[C@H](Cc2ccc(O)cc2)NC(=O)[C@H](CC(C)C)NC(=O)[C@@H](Cc2c[nH]c3ccccc23)NC(=O)CSC[C@@H](C(=O)NCC(N)=O)NC1=O [Ub4ix]
^K48Ub4
  koff: 0.021 s⁻¹
  kon: 3.52e+06 M⁻¹ s⁻¹
[1]
  protein breakdown: markedly reduced
USP2 [2]
  inhibition of USP2: minimal inhibition
HeLa cells [3]
  suppression of cell growth: most effective
HeLa cells [4]
  apoptosis: clear increase in apoptosis
26S proteasome
  inhibition of proteasomal degradation of α-globin-K48-linked tetra-Ub: clear inhibition
[5]
  cellular level of Ub-conjugates: elevation in Ub-conjugates
[6]
  effect on protein synthesis: does not interfere with protein synthesis
USP2 [7]
  inhibition of USP2: strong inhibition
[8]
  p53 and p27 levels: accumulated over time
